According to PubChem BioAssay AID1919010 (Molecular Pharmacology Branch, DTP, NCI, 2023):
Several values for one entry are separate records, joined by “and”; a condition that tells them apart may be missing. Equal entries are not always repeated. Blank lines part the entries; values can stand above or below the compound they belong to.

Tested on: Hs578T complex spheroid growth, percent test/control
Experiment: Anticancer human tumor Hs578T cell line growth inhibition [AhR];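 note: luminescent viability signal as a proxy for spheroid growth; spheroids exposed to agents for one week after three days of growth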
Details: for viability, T/C: stronger effect = lower value
From the text: Multicellular complex tumor spheroid response to aryl hydrocarbon receptor antagonists in combination with a variety of drugs and investigational agents in selected tumor cell lines
The current study was undertaken to assess response to aryl hydrocarbon receptor antagonists in combination with standard-of-care drugs and investigational agents in solid tumor complex spheroid models. Complex spheroids include a stromal component modeled by human endothelial cells (HUVEC) and fibroblasts modeled by human mesenchymal stem cells (MSCs). The concentration ranges selected for each drug and investigational agent were based upon clinically achievable concentrations if the clinical Cmax of the agent was known.
Compounds. The drugs and investigational agents: BAY 2416964 (NSC825713), GNF351 (NSC835774), CH-223191 (NSC835775), CPI-455 (NSC825282), aza-TdCyd (NSC777586), decitabine (NSC127716), belinostat (NSC758774), entinostat (NSC756642), pevonedistat (NSC761192), tazemetostat (NSC777109), talazoparib (NSC765396), olaparib (NSC753686), selinexor (NSC780203), nedisertib (M3814, NSC802822), bortezomib (NSC756655), venetoclax (NSC766270), doxorubicin (NSC123127), elimusertib (BAY189344, NSC800525), ceralasertib (AZD6738, NSC777638), TAK-243 (NSC785004), alisertib (NSC759677), etoposide (NSC141540), topotecan (NSC609699), eribulin (NSC707389), gemcitabine (NSC613327), carboplatin (NSC241240), cisplatin (NSC119875), and SN-38 (NSC673596) were obtained from the National Cancer Institute (NCI) Developmental Therapeutics Program Chemical Repository (32). The FDA-approved anticancer drug set is available from the Developmental Therapeutics Program at https://dtp.cancer.gov/organization/dscb/obtaining/available plates.htm. […] The stock solutions were prepared in dimethyl sulfoxide (DMSO, Sigma-Aldrich, St. Louis, MO, cat. D2650), except for the platinum compounds which were prepared in saline (Quality Biological, Gaithersburg, MD, cat. 114-055-101), at 800-fold the tested concentration and stored at -70 degrees C prior to their use. All drugs and investigational agents were tested over a range starting from a high concentration at or near the clinical Cmax and decreasing in half-log increments. If the clinical Cmax for an agent had not been determined, the highest concentration tested was 10 microM (Table 1).
Cell Culture. All cells were maintained in an incubator at 37 degrees C and 5% CO2 with 95% humidity. The PDC lines were cultured according to standard operating procedures established by the NCI PDMR (https://pdmr.cancer.gov). Briefly, all PDCs were thawed and cultured in Matrigel-coated flasks prepared with a working solution of 1X Ham's F-12 nutrient mix, without supplementation (Invitrogen, Waltham, MA, cat. 11765054), 100 U/mL penicillin-streptomycin (Invitrogen, cat. 15140122), and 2.5% Matrigel (Corning Inc., Corning, NY, cat. 354248) for the first three passages. All PDCs were cultured in complete DMEM/F-12 media containing advanced DMEM/F-12 (Invitrogen, cat. 12634028), 4.9% defined fetal bovine serum, heat inactivated (HyClone Laboratories Inc., Logan, UT, cat. SH30070.03HI), 389 ng/mL hydrocortisone (Sigma-Aldrich, cat. H4001), 9.7 ng/mL human EGF recombinant protein (Invitrogen, cat. PHG0313), 23.4 microg/mL adenine (Sigma-Aldrich, cat. A2786), 97.3 U/mL penicillin-streptomycin (Invitrogen, cat. 15140122), 1.9 mM L-glutamine (Invitrogen, cat. 25030081), and 9.7 microM Y-27632 dihydrochloride (Tocris Bioscience, Bristol, United Kingdom, cat. 1254). The PDCs were cultured in complete DMEM/F12 media without 10 microM Y-27632 dihydrochloride for at least two passages prior to the screen. The established cell lines NCI-H1341 and […] were cultured in DMEM/F-12, HEPES (Invitrogen, cat. 11330032), 5% defined fetal bovine serum (HyClone Laboratories Inc., cat. SH30070.03), ITS premix universal culture supplement [insulin (5 microg/mL), transferrin (5 microg/mL), and selenious acid (5 ng/mL)] […]

[1] = curve of first compound, second compound 0.1 µM
[2] = curve of first compound, second compound 0.316 µM
[3] = curve of first compound, second compound 1 µM
[4] = curve of first compound, second compound 3.16 µM
[5] = curve of first compound, second compound 10 µM
[6] = second compound 0.1 µM, first compound 0.0316 µM
[7] = second compound 0.1 µM, first compound 0.1 µM
[8] = second compound 0.1 µM, first compound 0.316 µM
[9] = second compound 0.1 µM, first compound 1 µM
[10] = second compound 0.1 µM, first compound 3.16 µM
[11] = second compound 0.1 µM, first compound 10 µM
[12] = second compound 0.316 µM, first compound 0.0316 µM
[13] = second compound 0.316 µM, first compound 0.1 µM
[14] = second compound 0.316 µM, first compound 0.316 µM
[15] = second compound 0.316 µM, first compound 1 µM
[16] = second compound 0.316 µM, first compound 3.16 µM
[17] = second compound 0.316 µM, first compound 10 µM
[18] = second compound 1 µM, first compound 0.0316 µM
[19] = second compound 1 µM, first compound 0.1 µM
[20] = second compound 1 µM, first compound 0.316 µM
[21] = second compound 1 µM, first compound 1 µM
[22] = second compound 1 µM, first compound 3.16 µM
[23] = second compound 1 µM, first compound 10 µM
[24] = second compound 3.16 µM, first compound 0.0316 µM
[25] = second compound 3.16 µM, first compound 0.1 µM
[26] = second compound 3.16 µM, first compound 0.316 µM
[27] = second compound 3.16 µM, first compound 1 µM
[28] = second compound 3.16 µM, first compound 3.16 µM
[29] = second compound 3.16 µM, first compound 10 µM
[30] = second compound 10 µM, first compound 0.0316 µM
[31] = second compound 10 µM, first compound 0.1 µM
[32] = second compound 10 µM, first compound 0.316 µM
[33] = second compound 10 µM, first compound 1 µM
[34] = second compound 10 µM, first compound 3.16 µM
[35] = second compound 10 µM, first compound 10 µM

SMILES: Nc1ccn(C2OC(CO)C(O)C2(F)F)c(=O)n1 (stereo not given)
viability, T/C (compound 0.0316 µM): 47.9% and 47.2% and 52.3%
viability, T/C (compound 0.1 µM): 58.5% and 48.9% and 52.8%
viability, T/C (compound 0.316 µM): 58.5% and 51% and 51.5%
viability, T/C (compound 1 µM): 52.4% and 51.2% and 50.9%
viability, T/C (compound 3.16 µM): 50.7% and 50.1% and 51.2%
viability, T/C (compound 10 µM): 56.5% and 43.3% and 49%

SMILES: O=C(C=Cc1cccc(S(=O)(=O)Nc2ccccc2)c1)NO + Cc1ccccc1N=Nc1ccc(NC(=O)c2ccnn2C)c(C)c1
IC50 [1]: 1850 nM
IC50 [2]: 1780 nM
IC50 [3]: 1860 nM
IC50 [4]: 1770 nM
IC50 [5]: 1500 nM
viability, T/C [6]: 99%
viability, T/C [7]: 107%
viability, T/C [8]: 94%
viability, T/C [9]: 77.5%
viability, T/C [10]: 26.2%
viability, T/C [11]: 0.74%
viability, T/C [12]: 105%
viability, T/C [13]: 108%
viability, T/C [14]: 94%
viability, T/C [15]: 74%
viability, T/C [16]: 26.9%
viability, T/C [17]: 0.66%
viability, T/C [18]: 109%
viability, T/C [19]: 104%
viability, T/C [20]: 96.5%
viability, T/C [21]: 77.6%
viability, T/C [22]: 26.9%
viability, T/C [23]: 0.82%
viability, T/C [24]: 93.5%
viability, T/C [25]: 87.2%
viability, T/C [26]: 98.5%
viability, T/C [27]: 71.9%
viability, T/C [28]: 26.3%
viability, T/C [29]: 1.13%
viability, T/C [30]: 64.2%
viability, T/C [31]: 67.2%
viability, T/C [32]: 64%
viability, T/C [33]: 63.2%
viability, T/C [34]: 25.9%
viability, T/C [35]: 1.32%

SMILES: Cn1ncnc1C1c2n[nH]c(=O)c3cc(F)cc(c23)NC1c1ccc(F)cc1 (stereo not given)
viability, T/C (compound 0.000316 µM): 92.2% and 98.6% and 103%
viability, T/C (compound 0.001 µM): 104% and 105% and 101%
viability, T/C (compound 0.00316 µM): 113% and 105% and 109%
viability, T/C (compound 0.01 µM): 106% and 105% and 103%
viability, T/C (compound 0.0316 µM): 97.6% and 104% and 106%
viability, T/C (compound 0.1 µM): 102% and 96.8% and 95.4%
IC50 (curve of compound): > 100 nM

Now from value to compound, other results behind:

IC50 [1]: 9250 nM
IC50 [2]: > 10000 nM
IC50 [3]: 9240 nM
IC50 [4]: > 10000 nM
IC50 [5]: > 10000 nM
SMILES: CC1COCCN1c1cc(C2(S(C)(=N)=O)CC2)nc(-c2ccnc3[nH]ccc23)n1 (stereo not given) + Cc1ccccc1N=Nc1ccc(NC(=O)c2ccnn2C)c(C)c1
viability, T/C [6]: 110%
viability, T/C [7]: 102%
viability, T/C [8]: 102%
viability, T/C [9]: 96.6%
viability, T/C [10]: 77.9%
viability, T/C [11]: 47.9%
viability, T/C [12]: 101%
viability, T/C [13]: 101%
viability, T/C [14]: 100%
viability, T/C [15]: 93.4%
viability, T/C [16]: 76.9%
viability, T/C [17]: 52.4%
viability, T/C [18]: 94.6%
viability, T/C [19]: 102%
viability, T/C [20]: 99.5%
viability, T/C [21]: 86.3%
viability, T/C [22]: 73.7%
viability, T/C [23]: 48.1%
viability, T/C [24]: 85.4%
viability, T/C [25]: 93.3%
viability, T/C [26]: 89.7%
viability, T/C [27]: 84.4%
viability, T/C [28]: 69.2%
viability, T/C [29]: 51.4%
viability, T/C [30]: 62.9%
viability, T/C [31]: 62%
viability, T/C [32]: 76.1%
viability, T/C [33]: 68.5%
viability, T/C [34]: 61.6%
viability, T/C [35]: 47.7%

IC50 (curve of compound): > 10000 nM and 9320 nM
SMILES: CC1COCCN1c1cc(C2(S(C)(=N)=O)CC2)nc(-c2ccnc3[nH]ccc23)n1 (stereo not given)
viability, T/C (compound 0.0316 µM): 105% and 94.7% and 106%
viability, T/C (compound 0.1 µM): 108% and 91.7% and 112%
viability, T/C (compound 0.316 µM): 119% and 99.9% and 103%
viability, T/C (compound 1 µM): 105% and 89.6% and 108%
viability, T/C (compound 3.16 µM): 104% and 76.3% and 81.6%
viability, T/C (compound 10 µM): 60.3% and 48.3% and 55.5%
